From US6677350B1, “Beta-fluoroethyl thiourea compounds and use” (priority 1999, dated 2004)
Read-outs that look alike come from different tables or passages of the source.

Test system: M. tuberculosis H37Rv (ATCC 27294)
Test: In vitro anti-tuberculosis screening, BACTEC 460 radiometric system, percent inhibition of growth
Format: cell-based, Mycobacterium tuberculosis
Settings: for inhibition at 12.5 µg/mL: Mycobacterium tuberculosis
[1] = Mtb H37Rv, 12.5 μg/mL, BACTEC 12B medium
[2] = Mtb H37Rv, drug concentration 12.5 μg/mL
[3] = Mtb H37Rv, 12.5 μg/mL, BACTEC 12B medium, read-out: Activity % Inhibition at 12.5 μg/mL (biflavonoids)

CC(=O)Nc1cccc(/C=C/C(=O)c2ccccc2O)c1 [Compound 17]
Activity % inhibition at 12.5 μg/mL (chalcones) [1]: 0%

O=C(/C=C/c1ccccc1)c1ccccc1O [Compound 5, 2′-hydroxychalcone]
inhibition at 12.5 µg/mL (read-out: Activity % inhibition at 12.5 μg/mL (chalcones), Mtb H37Rv, 12.5 μg/mL, BACTEC 12B medium): 61% | inhibition at 12.5 µg/mL (read-out: inhibition of the growth of Mtb, Mtb H37Rv, drug concentration 12.5 μg/mL): 61%

COc1ccc(-c2oc3cc(OC)cc(OC)c3c(=O)c2-c2c(-c3ccc(OC)cc3)oc3cc(OC)cc(OC)c3c2=O)cc1 [Compound 159, 3-3″-Biapigenin hexamethylether]
anti-TB activity in words (Mtb H37Rv, 12.5 μg/mL): completely devoid of activity | Activity % Inhibition at 12.5 μg/mL (biflavonoids) [1]: 0%

O=c1c(O)c(-c2ccccc2)oc2ccc(I)cc12 [Compound 79]
Activity % Inhibition at 12.5 μg/mL (flavones) [1]: 64%

O=C(C=Cc1ccccc1)c1ccc(Cl)cc1O [Compound 25]
Activity % inhibition at 12.5 μg/mL (chalcones) [1]: 89% | inhibition of the growth of Mtb [2]: 89%

CC(=O)Oc1ccc(C2Oc3cc(OC(C)=O)cc(OC(C)=O)c3C(=O)C2c2c(OC(C)=O)cc(OC(C)=O)c3c(=O)cc(-c4ccc(OC(C)=O)c(OC(C)=O)c4)oc23)cc1 (centres unmarked) [Compound 175, Morelloflavone heptaacetate]
Activity % Inhibition at 12.5 μg/mL (biflavonoids) [1]: 0%

O=c1cc(-c2ccc(O)cc2)oc2ccccc12 [Compound 104]
Activity % Inhibition at 12.5 μg/mL (flavones) [1]: 18%

O=C(/C=C/c1cccc(I)c1)c1cccc(Br)c1O [Compound 51, 3′-bromo-2′-hydroxy-3-iodochalcone]
inhibition at 12.5 µg/mL (Mtb H37Rv, drug concentration 12.5 μg/mL, read-out: inhibition of the growth of Mtb): 0%

O=c1cc(-c2ccccc2)oc2ccc(-c3ccccc3-c3cc(=O)c4ccccc4o3)cc12 [Compound 156, 6-2′′′′-Biflavone]
Activity % Inhibition at 12.5 μg/mL (biflavonoids) [1]: 9%

COc1ccc(-c2oc3ccc(C(=O)O)cc3c(=O)c2O)cc1 [Compound 130]
Activity % Inhibition at 12.5 μg/mL (flavones) [1]: 0%

COc1cc(OC)c2c(c1)OC(c1cc(OC)c(OC)c(OC)c1)C(Br)(Br)C2=O (centres unmarked) [Compound 140]
Activity % Inhibition at 12.5 μg/mL (flavanones) [1]: 16%

O=C(/C=C/c1ccccc1)c1ccc(I)cc1O [Compound 45]
Activity % inhibition at 12.5 μg/mL (chalcones) [1]: 21% | inhibition of the growth of Mtb [2]: 21%

O=c1cc(-c2ccccc2)oc2cc(Cl)ccc12 [Compound 122]
anti-TB activity in words (Mtb H37Rv, 12.5 μg/mL): weakly active or inactive | Activity % Inhibition at 12.5 μg/mL (flavones) [1]: 0%

O=C(/C=C/c1ccccc1)c1cccc2ccccc12 [Compound 61]
Activity % inhibition at 12.5 μg/mL (chalcone-like compounds) [1]: 37%

COc1ccc(/C=C/C(=O)c2ccccc2F)cc1 [Compound 20]
Activity % inhibition at 12.5 μg/mL (chalcones) [1]: 82%

COc1ccc(C(=O)/C=C/c2cccnc2)cc1 [Compound 71]
Activity % inhibition at 12.5 μg/mL (chalcone-like compounds) [1]: 0%

COc1ccc(C(=O)/C=C/c2ccco2)c(O)c1 [Compound 65]
Activity % inhibition at 12.5 μg/mL (chalcone-like compounds) [1]: 3%

O=c1cc(-c2ccccc2-c2cccc3c(=O)cc(-c4ccccc4)oc23)oc2ccccc12 [Compound 161, 8-2′′′-Biflavone]
Activity % Inhibition at 12.5 μg/mL (biflavonoids) [1]: 0%

COc1ccc(/C=C/C(=O)c2c(O)cccc2OC)cc1 [Compound 2]
Activity % inhibition at 12.5 μg/mL (chalcones) [1]: 75%

Nc1ccc(C(=O)/C=C/c2ccccc2)cc1 [Compound 13]
Activity % inhibition at 12.5 μg/mL (chalcones) [1]: 5%

COc1cc(OC)c2c(=O)cc(-c3ccc(O)cc3)oc2c1 [Compound 132]
Activity % Inhibition at 12.5 μg/mL (flavones) [1]: 0%

O=c1cc(-c2ccccc2)oc2ccc(Br)cc12 [Compound 123]
anti-TB activity in words (Mtb H37Rv, 12.5 μg/mL): weakly active or inactive | Activity % Inhibition at 12.5 μg/mL (flavones) [1]: 0%

O=c1c(Br)c(-c2ccccc2)oc2ccccc12 [Compound 108]
Activity % Inhibition at 12.5 μg/mL (flavones) [1]: 13%

COc1ccc(C(=O)/C=C/c2ccccc2)c(O)c1 [Compound 1]
Activity % inhibition at 12.5 μg/mL (chalcones) [1]: 78% | inhibition of the growth of Mtb [2]: 78%

O=C(/C=C/c1ccccc1Br)c1ccccc1O [Compound 31]
Activity % inhibition at 12.5 μg/mL (chalcones) [1]: 83% | inhibition of the growth of Mtb [2]: 83%

O=C1CC(c2cccc(Br)c2)Oc2ccccc21 (centres unmarked) [Compound 134]
Activity % Inhibition at 12.5 μg/mL (flavanones) [1]: 73% | inhibition of the growth of Mtb [2]: 73%

O=c1c(O)c(-c2ccccc2)oc2ccc(Br)cc12 [Compound 82]
Activity % Inhibition at 12.5 μg/mL (flavones) [1]: 58%

O=c1cc(-c2cccc(-c3cccc4c(=O)cc(-c5ccccc5)oc34)c2)oc2ccccc12 [Compound 155, 3′-8′′-Biflavone]
anti-TB activity in words (Mtb H37Rv, 12.5 μg/mL): moderate activity | Activity % Inhibition at 12.5 μg/mL (biflavonoids) [1]: 49%

COc1cc(OC)c2c(c1)OC(c1cc(OC)c(OC)c(OC)c1)CC2=O (centres unmarked) [Compound 144]
Activity % Inhibition at 12.5 μg/mL (flavanones) [1]: 0%

O=C1C[C@@H](c2ccc(O)c(O)c2)Oc2c1c(O)cc(O)c2[C@H]1C(=O)c2c(O)cc(O)cc2O[C@@H]1c1ccc(O)cc1 [Compound 172, GB-2a]
Activity % Inhibition at 12.5 μg/mL (biflavonoids) [1]: 0%

O=c1cc(-c2cccc(-c3ccc4c(=O)cc(-c5ccccc5)oc4c3)c2)oc2ccccc12 [Compound 162, 7-3′′′-Biflavone]
Activity % Inhibition at 12.5 μg/mL (biflavonoids) [1]: 0%

O=c1cc(-c2ccc(Oc3c(O)cc4oc(-c5ccc(O)cc5)cc(=O)c4c3O)cc2)oc2cc(O)cc(O)c12 [Compound 167, Hinokiflavone]
inhibition at 12.5 µg/mL [3]: 0%

COc1ccc(-c2oc3cc(I)ccc3c(=O)c2O)cc1 [Compound 91]
Activity % Inhibition at 12.5 μg/mL (flavones) [1]: 43%

O=C(/C=C/c1ccncc1)c1ccco1 [Compound 75]
Activity % inhibition at 12.5 μg/mL (chalcone-like compounds) [1]: 0%

COc1ccc(/C=C/C(=O)c2cc(C(=O)O)ccc2O)cc1 [Compound 16]
Activity % inhibition at 12.5 μg/mL (chalcones) [1]: 0%

O=C(/C=C/c1ccc(I)cc1)c1ccccc1O [Compound 46]
Activity % inhibition at 12.5 μg/mL (chalcones) [1]: 21% | inhibition of the growth of Mtb [2]: 21%

O=c1cc(-c2ccc(O)c(-c3c(O)cc(O)c4c(=O)cc(-c5ccc(O)cc5)oc34)c2)oc2cc(O)cc(O)c12 [Compound 164, Amentoflavone]
inhibition at 12.5 µg/mL [3]: 0%

COc1ccc(C2CC(=O)c3c(cc(OC)c(-c4c(OC)cc5c(c4OC)C(=O)CC(c4ccc(OC)cc4)O5)c3OC)O2)cc1 (centres unmarked) [Compound 157, 6-6′′-Binaringenin hexamethylether]
anti-TB activity in words (Mtb H37Rv, 12.5 μg/mL): inactive | Activity % Inhibition at 12.5 μg/mL (biflavonoids) [1]: 2%

O=C(C=Cc1ccccn1)c1ccccn1 [Compound 60]
Activity % inhibition at 12.5 μg/mL (chalcone-like compounds) [1]: 42%

COc1ccc(-c2oc3ccc(F)cc3c(=O)c2O)cc1 [Compound 94]
Activity % Inhibition at 12.5 μg/mL (flavones) [1]: 29%

O=c1c(O)c(-c2ccccc2)oc2cc(Cl)ccc12 [Compound 81]
Activity % Inhibition at 12.5 μg/mL (flavones) [1]: 58%

COc1cc(OC)c2c(=O)cc(-c3ccc(OC)c(I)c3)oc2c1 [Compound 126]
Activity % Inhibition at 12.5 μg/mL (flavones) [1]: 0%

O=C(/C=C/c1ccco1)c1ccc(Br)cc1O [Compound 63]
Activity % inhibition at 12.5 μg/mL (chalcone-like compounds) [1]: 17%

COc1ccc2c(=O)cc(-c3ccccc3)oc2c1 [Compound 117]
Activity % Inhibition at 12.5 μg/mL (flavones) [1]: 0%
